Literature values as cited in patent US20150079136A1, “CONTROLLED RELEASE PHARMACEUTICAL FORMULATIONS OF DIRECT THROMBIN INHIBITORS” (RUBICON RESEARCH PRIVATE LIMITED, priority 2012, published 2015).
Where a name gives a salt, the structure may show the parent alone. Read-outs that look alike come from different tables or passages of the source.

How the values were obtained:
[1] = not given; remark: listed apart in the source
[2] = not given; remark: listed apart in the source
[3] = target: P-glycoprotein (Homo sapiens, UniProt P08183)
P-glycoprotein, sequence (P08183 whole entry): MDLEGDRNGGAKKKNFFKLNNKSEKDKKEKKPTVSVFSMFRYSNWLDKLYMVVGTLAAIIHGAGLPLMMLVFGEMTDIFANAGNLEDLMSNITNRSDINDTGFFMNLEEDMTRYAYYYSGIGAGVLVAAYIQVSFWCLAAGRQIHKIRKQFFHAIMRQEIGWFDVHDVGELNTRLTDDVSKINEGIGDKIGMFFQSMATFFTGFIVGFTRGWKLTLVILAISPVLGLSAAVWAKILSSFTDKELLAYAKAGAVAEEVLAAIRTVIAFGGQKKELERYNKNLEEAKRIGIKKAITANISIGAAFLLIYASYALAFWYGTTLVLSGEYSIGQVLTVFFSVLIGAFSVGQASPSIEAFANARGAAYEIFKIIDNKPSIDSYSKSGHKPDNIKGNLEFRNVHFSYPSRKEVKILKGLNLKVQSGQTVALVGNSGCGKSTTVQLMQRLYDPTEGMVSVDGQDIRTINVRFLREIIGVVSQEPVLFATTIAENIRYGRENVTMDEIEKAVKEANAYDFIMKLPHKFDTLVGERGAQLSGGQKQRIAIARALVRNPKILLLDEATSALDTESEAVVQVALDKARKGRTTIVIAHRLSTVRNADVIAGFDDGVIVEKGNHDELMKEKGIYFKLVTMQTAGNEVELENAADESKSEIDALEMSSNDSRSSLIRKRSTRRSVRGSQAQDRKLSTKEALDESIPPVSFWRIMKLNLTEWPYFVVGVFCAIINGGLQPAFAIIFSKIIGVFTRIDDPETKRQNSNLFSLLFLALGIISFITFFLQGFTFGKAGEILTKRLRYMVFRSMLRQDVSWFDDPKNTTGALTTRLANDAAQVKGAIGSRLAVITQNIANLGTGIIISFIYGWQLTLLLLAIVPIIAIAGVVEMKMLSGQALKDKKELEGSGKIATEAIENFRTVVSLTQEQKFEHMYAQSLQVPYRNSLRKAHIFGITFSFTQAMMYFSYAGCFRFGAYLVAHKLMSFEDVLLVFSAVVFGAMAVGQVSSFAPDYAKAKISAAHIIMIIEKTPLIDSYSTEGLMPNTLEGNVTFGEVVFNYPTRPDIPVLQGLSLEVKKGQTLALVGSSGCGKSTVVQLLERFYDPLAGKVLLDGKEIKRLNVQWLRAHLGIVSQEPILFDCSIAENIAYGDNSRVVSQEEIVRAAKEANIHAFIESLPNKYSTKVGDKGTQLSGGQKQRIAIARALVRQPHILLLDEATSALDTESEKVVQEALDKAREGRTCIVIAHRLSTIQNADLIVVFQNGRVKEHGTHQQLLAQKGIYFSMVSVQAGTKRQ

elimination half life (multiple dosing)	elimination half life (single dosing) [h]	sensitivity to light irradiation ([1]; light irradiation)	hygroscopicity ([1]; powder)	stability in the solid state ([1]; solid state)	solubility in acidic media ([2]; acidic media)	solubility in neutral and basic media ([2]; neutral and basic media)	BCS class ([2]; poor aqueous solubility but good membrane permeability)	substrate of efflux transporter P-glycoprotein [3]	effect of high-fat meal on the bioavailability of dabigatran (coadministration with a high-fat meal)	absolute bioavailability of dabigatran (following oral administration of dabigatran etexilate)	increase in oral bioavailability (marketed formulation, pellets taken without the capsule shell vs intact capsule) [%]	SMILES	degradation in the presence of moisture ([1]; presence of moisture)
about 8 hours	12 to 17	not sensitive	non-hygroscopic	stable	rather high solubility	very poor solubility	Class II					CCCCCCOC(=O)NC(=N)c1ccc(NCc2nc3cc(C(=O)N(CCC(=O)OCC)c4ccccn4)ccc3n2C)cc1 [DEM, dabigatran etexilate mesylate]	predominantly undergoes degradation by hydrolytic pathways
								substrate	no effect	3-7%	75	CCCCCCOC(=O)NC(=N)c1ccc(NCc2nc3cc(C(=O)N(CCC(=O)OCC)c4ccccn4)ccc3n2C)cc1 [dabigatran etexilate, 1-methyl-2-[N-[4-(N-n-hexyloxycarbonylamidino)phenyl]aminomethyl]benzimidazol-5-ylcarboxylic acid-N-(2-pyridyl)-N-(2 ethoxycarbonylethyl)amides]	
